In patent publication US20020137929A1, “1 - (3-heterocyclylphenyl) isothiourea, -isourea, -guanidine and -amidine herbicidal agents” (Intellectual Property Department, BASF Aktiengesellschaft, priority 1998, published 2002):

Key:
[1] = tested on: GLXMAW (Soybean, Williams); assay: Postemergence herbicidal evaluation; format: in vivo, Glycine max, (L.) Merr. cv Williams; details: for herbicidal rating GLXMAW: postemergence
In short: (§1)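 Rate range approx. 0.0156–0.500 kg/ha. Foliar application at 40 psi to ~2-week seedlings; surfactant 0.5% TWEEN 20 in 50/50 acetone/water. Evaluation 4–5 wk post-treatment by 0–9 visual injury score, means of replicate tests.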

ZEAMX (Corn, Field) = assay: Postemergence herbicidal evaluation; format: in vivo, Zea mays; details: for herbicidal rating ZEAMX: postemergence
In short: as §1

CASOB (Sicklepod) = assay: Preemergence herbicidal evaluation; format: in vivo, Cassia obtusifolia; details: rated 4-5 weeks after treatment
In short: (§2)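 Test compound, dissolved in aqueous acetone, was sprayed over planted soil cups at an equivalent of about 0.0156 to 0.500 kg/ha; seeds had been mixed with potting soil. Greenhouse growth followed, with visual 0-9 scoring of injury at four to five weeks.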

CYPSE (Flatsedge) = assay: Preemergence weed control under flooded paddy conditions; format: in vivo, Cyperus serotinus; details: rated 3-4 weeks after treatment
In short: (§3)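 Visual injury scored 0-9 against control three to four weeks post-treatment, greenhouse-grown. Application: acetone/water (50/50) solutions dosed directly into flood water (1.5-3 cm over silt loam, planted top 0.5 cm), roughly 0.0313 to 0.500 kg/ha active ingredient.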

ECHCG (Barnyardgrass) = assay: Preemergence herbicidal evaluation; format: in vivo, Echinochloa crus-galli; details: rated 4-5 weeks after treatment
In short: as §2

[2] = tested on: IPOHE (Morningglory, Ivyleaf); assay: Preemergence herbicidal evaluation; format: in vivo, Ipomoea hederacea; details: rated 4-5 weeks after treatment
In short: as §2

[3] = tested on: IPOHE (Morningglory, Ivyleaf); assay: Postemergence herbicidal evaluation; format: in vivo, Ipomoea hederacea; details: for herbicidal rating IPOHE: postemergence
In short: as §1

SETVI (Foxtail, Green) = assay: Postemergence herbicidal evaluation; format: in vivo, Setaria viridis; details: for herbicidal rating SETVI: postemergence
In short: as §1

[4] = tested on: ECHORC (Watergrass (Calif.)); assay: Preemergence weed control under flooded paddy conditions; format: in vivo, Echinochloa oryzoides; details: rated 3-4 weeks after treatment
In short: as §3

ABUTH (Velvetleaf) [5] = assay: Preemergence herbicidal evaluation; format: in vivo, Abutilon theophrasti; details: rated 4-5 weeks after treatment
In short: as §2

AMBEL (Ragweed, Common) = assay: Preemergence herbicidal evaluation; format: in vivo, Ambrosia artemisifolia; details: rated 4-5 weeks after treatment
In short: as §2

ABUTH (Velvetleaf) [6] = assay: Postemergence herbicidal evaluation; format: in vivo, Abutilon theophrasti; details: for herbicidal rating ABUTH: postemergence
In short: as §1

CCCN1C(=O)CSC1=Nc1cc(-n2c(=O)cc(C(F)(F)F)n(C)c2=O)c(F)cc1Cl [Compound 171, 3-{4-Chloro-2-fluoro-5-[(4-oxo-3-propyl-2-thiazolidinylidene)amino]phenyl}-1-methyl-6-(trifluoromethyl)-2,4 (1H, 3H)-pyrimidinedione]
6.5: Postemergence herbicidal rating GLXMAW ([1]; Rate 0.0313 kg/ha) | Postemergence herbicidal rating ZEAMX (ZEAMX (Corn, Field); Rate 0.0313 kg/ha)
9.0: Preemergence herbicidal rating CASOB (CASOB (Sicklepod); 0.2500 kg/ha) | herbicidal effect rating, CYPSE (CYPSE (Flatsedge); 0.0313 kg/ha) | herbicidal effect rating, CYPSE (CYPSE (Flatsedge); 0.0625 kg/ha) | herbicidal effect rating, CYPSE (CYPSE (Flatsedge); 0.1250 kg/ha) | herbicidal effect rating, CYPSE (CYPSE (Flatsedge); 0.2500 kg/ha) | Preemergence herbicidal rating ECHCG (ECHCG (Barnyardgrass); 0.1250 kg/ha) | Preemergence herbicidal rating ECHCG (ECHCG (Barnyardgrass); 0.2500 kg/ha) | Preemergence herbicidal rating IPOHE ([2]; 0.0625 kg/ha) | Preemergence herbicidal rating IPOHE ([2]; 0.1250 kg/ha) | Preemergence herbicidal rating IPOHE ([2]; 0.2500 kg/ha) | Postemergence herbicidal rating IPOHE ([3]; Rate 0.0156 kg/ha) | Postemergence herbicidal rating IPOHE ([3]; Rate 0.0313 kg/ha) | herbicidal rating IPOHE ([3]; rate 0.0625 kg/ha) | herbicidal rating SETVI (SETVI (Foxtail, Green); rate 0.0625 kg/ha) | herbicidal effect rating, ECHORC ([4]; 0.0625 kg/ha) | herbicidal effect rating, ECHORC ([4]; 0.1250 kg/ha) | herbicidal effect rating, ECHORC ([4]; 0.2500 kg/ha) | Preemergence herbicidal rating ABUTH (ABUTH (Velvetleaf) [5]; 0.0156 kg/ha) | Preemergence herbicidal rating ABUTH (ABUTH (Velvetleaf) [5]; 0.0313 kg/ha) | Preemergence herbicidal rating ABUTH (ABUTH (Velvetleaf) [5]; 0.0625 kg/ha) | Preemergence herbicidal rating ABUTH (ABUTH (Velvetleaf) [5]; 0.1250 kg/ha) | Preemergence herbicidal rating ABUTH (ABUTH (Velvetleaf) [5]; 0.2500 kg/ha) | Preemergence herbicidal rating AMBEL (AMBEL (Ragweed, Common); 0.0625 kg/ha) | Preemergence herbicidal rating AMBEL (AMBEL (Ragweed, Common); 0.1250 kg/ha) | Preemergence herbicidal rating AMBEL (AMBEL (Ragweed, Common); 0.2500 kg/ha) | Postemergence herbicidal rating ABUTH (ABUTH (Velvetleaf) [6]; Rate 0.0156 kg/ha) | Postemergence herbicidal rating ABUTH (ABUTH (Velvetleaf) [6]; Rate 0.0313 kg/ha) | herbicidal rating ABUTH (ABUTH (Velvetleaf) [6]; rate 0.0625 kg/ha)
2.0: Preemergence herbicidal rating CASOB (CASOB (Sicklepod); 0.0625 kg/ha) | Preemergence herbicidal rating IPOHE ([2]; 0.0156 kg/ha)
5.5: Postemergence herbicidal rating GLXMAW ([1]; Rate 0.0156 kg/ha)
3.0: Preemergence herbicidal rating IPOHE ([2]; 0.0313 kg/ha) | Preemergence herbicidal rating AMBEL (AMBEL (Ragweed, Common); 0.0156 kg/ha)
7.0: herbicidal rating GLXMAW ([1]; rate 0.0625 kg/ha) | herbicidal rating ZEAMX (ZEAMX (Corn, Field); rate 0.0625 kg/ha) | Postemergence herbicidal rating SETVI (SETVI (Foxtail, Green); Rate 0.0156 kg/ha) | Postemergence herbicidal rating SETVI (SETVI (Foxtail, Green); Rate 0.0313 kg/ha)
0.0: Preemergence herbicidal rating ECHCG (ECHCG (Barnyardgrass); 0.0156 kg/ha)
4.0: Preemergence herbicidal rating CASOB (CASOB (Sicklepod); 0.0156 kg/ha) | Preemergence herbicidal rating CASOB (CASOB (Sicklepod); 0.1250 kg/ha) | Preemergence herbicidal rating ECHCG (ECHCG (Barnyardgrass); 0.0313 kg/ha) | Preemergence herbicidal rating AMBEL (AMBEL (Ragweed, Common); 0.0313 kg/ha)
8.0: Preemergence herbicidal rating ECHCG (ECHCG (Barnyardgrass); 0.0625 kg/ha) | herbicidal effect rating, ECHORC ([4]; 0.0313 kg/ha)
5.0: Postemergence herbicidal rating ZEAMX (ZEAMX (Corn, Field); Rate 0.0156 kg/ha) | Preemergence herbicidal rating CASOB (CASOB (Sicklepod); 0.0313 kg/ha)

C=CCN1C(=O)C(CC(=O)NO)SC1=Nc1cc(-n2c(=O)cc(C(F)(F)F)n(C)c2=O)c(F)cc1Cl (stereo not drawn) [Compound 161, 3-Allyl-2-{{2-chloro-5-[3,6-dihydro-3-methyl-2,6-dioxo-4-(trifluoromethyl)-1(2H)-pyrimidinyl]-4-fluorophenyl}imino}-4-oxo-5-thiazolidineacetohydroxamic acid]
7.0: herbicidal rating GLXMAW ([1]; rate 0.0625 kg/ha) | herbicidal rating ZEAMX (ZEAMX (Corn, Field); rate 0.0625 kg/ha) | Preemergence herbicidal rating ECHCG (ECHCG (Barnyardgrass); 0.2500 kg/ha) | Preemergence herbicidal rating IPOHE ([2]; 0.0625 kg/ha) | herbicidal rating SETVI (SETVI (Foxtail, Green); rate 0.0625 kg/ha) | herbicidal rating SETVI (SETVI (Foxtail, Green); rate 0.1250 kg/ha) | herbicidal rating ABUTH (ABUTH (Velvetleaf) [6]; rate 0.0625 kg/ha)
9.0: Preemergence herbicidal rating CASOB (CASOB (Sicklepod); 0.1250 kg/ha) | Preemergence herbicidal rating CASOB (CASOB (Sicklepod); 0.2500 kg/ha) | Preemergence herbicidal rating CASOB (CASOB (Sicklepod); 0.5000 kg/ha) | Preemergence herbicidal rating ECHCG (ECHCG (Barnyardgrass); 0.5000 kg/ha) | Preemergence herbicidal rating IPOHE ([2]; 0.1250 kg/ha) | Preemergence herbicidal rating IPOHE ([2]; 0.2500 kg/ha) | Preemergence herbicidal rating IPOHE ([2]; 0.5000 kg/ha) | herbicidal rating IPOHE ([3]; rate 0.0625 kg/ha) | herbicidal rating IPOHE ([3]; rate 0.1250 kg/ha) | Preemergence herbicidal rating ABUTH (ABUTH (Velvetleaf) [5]; 0.1250 kg/ha) | Preemergence herbicidal rating ABUTH (ABUTH (Velvetleaf) [5]; 0.2500 kg/ha) | Preemergence herbicidal rating ABUTH (ABUTH (Velvetleaf) [5]; 0.5000 kg/ha) | Preemergence herbicidal rating AMBEL (AMBEL (Ragweed, Common); 0.1250 kg/ha) | Preemergence herbicidal rating AMBEL (AMBEL (Ragweed, Common); 0.2500 kg/ha) | Preemergence herbicidal rating AMBEL (AMBEL (Ragweed, Common); 0.5000 kg/ha) | herbicidal rating ABUTH (ABUTH (Velvetleaf) [6]; rate 0.1250 kg/ha)
0.0: Preemergence herbicidal rating CASOB (CASOB (Sicklepod); 0.0156 kg/ha) | Preemergence herbicidal rating CASOB (CASOB (Sicklepod); 0.0313 kg/ha) | herbicidal effect rating, CYPSE (CYPSE (Flatsedge); 0.0313 kg/ha) | herbicidal effect rating, CYPSE (CYPSE (Flatsedge); 0.0625 kg/ha) | herbicidal effect rating, CYPSE (CYPSE (Flatsedge); 0.1250 kg/ha) | Preemergence herbicidal rating ECHCG (ECHCG (Barnyardgrass); 0.0156 kg/ha) | Preemergence herbicidal rating ECHCG (ECHCG (Barnyardgrass); 0.0313 kg/ha) | Preemergence herbicidal rating ECHCG (ECHCG (Barnyardgrass); 0.0625 kg/ha) | herbicidal rating SETVI (SETVI (Foxtail, Green); rate 0.0156 kg/ha) | herbicidal effect rating, ECHORC ([4]; 0.0313 kg/ha) | herbicidal effect rating, ECHORC ([4]; 0.0625 kg/ha) | Preemergence herbicidal rating ABUTH (ABUTH (Velvetleaf) [5]; 0.0156 kg/ha) | Preemergence herbicidal rating AMBEL (AMBEL (Ragweed, Common); 0.0156 kg/ha) | herbicidal rating ABUTH (ABUTH (Velvetleaf) [6]; rate 0.0156 kg/ha)
3.0: herbicidal effect rating, CYPSE (CYPSE (Flatsedge); 0.2500 kg/ha) | herbicidal rating IPOHE ([3]; rate 0.0313 kg/ha) | Preemergence herbicidal rating AMBEL (AMBEL (Ragweed, Common); 0.0313 kg/ha)
1.0: Preemergence herbicidal rating CASOB (CASOB (Sicklepod); 0.0625 kg/ha) | herbicidal rating IPOHE ([3]; rate 0.0156 kg/ha) | herbicidal rating SETVI (SETVI (Foxtail, Green); rate 0.0313 kg/ha) | Preemergence herbicidal rating ABUTH (ABUTH (Velvetleaf) [5]; 0.0313 kg/ha)
4.0: Preemergence herbicidal rating ECHCG (ECHCG (Barnyardgrass); 0.1250 kg/ha) | herbicidal effect rating, ECHORC ([4]; 0.2500 kg/ha)
4.5: herbicidal rating ZEAMX (ZEAMX (Corn, Field); rate 0.0156 kg/ha)
2.0: Preemergence herbicidal rating IPOHE ([2]; 0.0313 kg/ha) | herbicidal effect rating, ECHORC ([4]; 0.1250 kg/ha) | Preemergence herbicidal rating ABUTH (ABUTH (Velvetleaf) [5]; 0.0625 kg/ha)
6.5: herbicidal rating GLXMAW ([1]; rate 0.0313 kg/ha) | herbicidal rating ZEAMX (ZEAMX (Corn, Field); rate 0.0313 kg/ha)
8.5: herbicidal rating GLXMAW ([1]; rate 0.1250 kg/ha)
7.5: herbicidal rating ZEAMX (ZEAMX (Corn, Field); rate 0.1250 kg/ha)
5.0: herbicidal rating GLXMAW ([1]; rate 0.0156 kg/ha) | Preemergence herbicidal rating AMBEL (AMBEL (Ragweed, Common); 0.0625 kg/ha) | herbicidal rating ABUTH (ABUTH (Velvetleaf) [6]; rate 0.0313 kg/ha)
